Measured values: patent US20210275514A1, “COMPOUNDS FOR USE IN TREATING KIDNEY DISORDERS” (Hoffmann-La Roche Inc., priority 2018, published 2021)
Entries after “also recorded” stand apart in the source; their conditions may differ.

Assays:
[1] = test system: differentiated human podocytes; test: Compound cytotoxicity in differentiated human podocytes (ApoTox-Glo Triplex Assay); assay type: cell-based; conditions: 18 h
Procedure: Podocytes were seeded in 96-well plates (Greiner) and allowed to differentiate for 14 days. Cells were then washed with PBS, and incubated with media (RPMI-0.2% BSA) with or without vehicle and compounds for 18 h at 37° C., 5% CO2. Compound concentrations tested were 1 μM, 5 μM, 10 μM and 20 μM. Vehicle (DMSO) final concentration was 0.1%. All treatments were done in duplicates. Cytotoxicity was assayed using ApoTox-Glo Triplex Assay (Promega) following manufacturer's instructions. Briefly, cell-permeant (GF-AFC) and cell impermeant (bis-AAF-R110) peptide substrates were diluted and added to all wells and the cells were incubated at 37° C., 5% CO2 for 1 hr. A set of cells were treated with saponin (2 mg/ml) as a positive control of cell cytotoxicity. Cell viability and cytotoxicity fluorescence signals were measured at 400 nm/505 nm and 485 nm/520 nm Excitation/Emission, respectively using a fluorescence microplate reader (SpectraMax i3). RFU signal obtained with the cell toxicity substrate was normalized to the one obtained with the viable substrate in the same well to eliminate the effect of different cell numbers per well.

[2] = test system: ADR-induced nephropathy in Balb/c mice; test: Adriamycin-induced kidney damage, second experiment, 28 days; assay type: in vivo, mouse; conditions: for Albuminuria / Body weight loss: 4 weeks after ADR; for TOTAL CHOL (blood) / TRIGLYCERIDES (blood): 28 days after ADR injection
Procedure: A second experiment was repeated to confirm the improvement of renal function attained with the doses of Cpd A and G in the first experiment. Briefly, 30 female Balb/c mice of 8 weeks age were injected with 12 mg/Kg of ADR by via tail vein and the mice were randomly distributed into 5 groups of 6 animals each. Animals were given vehicle or compounds by oral gavage once daily for 28 days starting one day after ADR injection. The following doses of compounds were tested: Cpd C, 10 mg/Kg/day; Cpd A, 30 mg/Kg/day and Cpd G, 30 mg/Kg/day and 100 mg/Kg/day. A group of 5 animals that received saline solution via tail vein injection and were treated with vehicle were used as healthy baseline control. Body weight measurements and spot urine collection was done once a week. Animals were sacrificed 28 days after ADR injection (FIG. 2).
Spot urine samples were collected for all mice at baseline and time of sacrifice. Urinary albumin and creatinine were determined using an albumin ELISA kit (Bethyl laboratories) and a colorimetric assay for creatinine determination (Stanbio). Albuminuria was calculated and expressed as μg of albumin divided by mg of creatinine. For diabetic mouse model, weight and glycaemia were measured on a bi-weekly basis.
At time of sacrifice blood was collected in heparinized tubes and mice were perfused via left ventricle perfusion with isotonic saline solution. Kidney cortex was carefully excised and further sectioned for the fallowing analysis: determination of podocyte number, lipid droplet staining, electron microscopy (EM), renal lipids content assays, PAS& HE staining for pathological evaluation.
Lipid droplet staining Filtered Oil-Red O-Isopropanol solution (Electron Microscopy Science, PA) was diluted with water (6:4). 4 μm kidney sections were incubated with 100 μl freshly prepared Oil-Red O solution (ORO) for 15 minutes and counterstained with Hematoxylin Harris Hg Free (VWR, PA) to detect lipid deposition. Glomeruli staining was evaluated using a light microscope (Olympus BX 41, Tokyo, Japan).
Renal lipids species assays. Kidney cortex sections were snap frozen and utilized for lipid extraction and cholesterol content determination. The tissue was homogenized in 2 mM potassium phosphate buffer in a glass douncer on ice. Lipids in 100 μl homogenate (˜5-10 mg tissue) were extracted with 1 ml hexane:isopropanol (3:2) for two sequential 30-minute extractions. The solvent containing lipids was then dried in Nitrogen atmosphere. Lipids were then reconstituted using isopropanol: NP-40 (9:1) and cholesterol content was quantified using the Amplex red cholesterol assay kit (Invitrogen) according to the manufacturers protocol. Triglycerides in lipid extracts were assayed with a colorimetric kit according to manufacturer's instructions (Cayman). Total cholesterol and cholesterol esters were assayed using an enzymatic fluorometric method. For total cholesterol renal lipid extracts were diluted in assay buffer (100 mM potassium phosphate, 50 mM NaCl, 5 mM cholic acid, 0.1% […], pH 7.4) and incubated with same buffer supplemented with a final concentration of 1 U/ml cholesterol oxidase, 1 U/ml cholesterol esterase, 1 U/ml horseradish peroxidase, and 75 μM Amplex Red. The reactions were incubated at 37° C. for 30 min in a black opaque 96 well plate (Greiner) and fluorescence was measured in a microplate reader (Spectramax i3X, Molecular Devices) using 530 nm excitation and 580 emission.
Cholesterol esters were assayed using a direct method described by Mizoguchi et al (Mizoguchi, 2004). Briefly 150 μl of FC decomposition reagent (45 U/ml bovine catalase and 1 U/ml cholesterol oxidase, in assay buffer described above) was added to 25 μl of sample containing up to 1 mM total cholesterol. Free cholesterol was allowed to decompose overnight at 37° C. and then 75 μl of 4× cholesterol ester detection reagent (1 U/ml cholesterol oxidase, 4 U/ml cholesterol esterase, 24 U/ml horseradish peroxidase, 300 μM Amplex Red) was added. […]

129 Col4a3 KO mice = test: Alport mouse model, late study of survival, treatment from 6 weeks of age; assay type: in vivo; conditions: 100 mg/Kg/day oral gavage started in 6 weeks old mice
Procedure: 129 Col4a3^tm1/Dec/J mice were purchased from Jackson Labs and bred to generate Col4a3 KO mice. Mice were genotyped and selected using the primers: F ([…]), R ([…]) and Rm ([…]) in a PCR reaction (94 C for 5 min, followed by 30 cycles of 30 sec at 95 C, 15 sec at 60 C and 30 sec 72 C, and 1 min at 72 C). 129 Col4A3-KO mice were divided into two groups of 5 mice (males and females) each. At the age of 4 weeks, mice started receiving either vehicle or Cpd G (100 mg/Kg) by oral gavage once daily for 4 weeks. Body weight measurements and spot urine collection was performed once a week. Animals were sacrificed at the end of the treatment at the age of 8 weeks. A late study was also performed to evaluate if treatment of Col4A3-KO mice at time of established disease would prolong mice survival. In this study, mice were treated with Cpd G (100 mg/Kg/day) by daily oral gavage starting at 6 weeks of age and survival was assessed.

[3] = concentrations above 10 uM, FIG. 3

In the case of `O=C(N[C@@H]1CCCC[C@H]1O)c1ccc(OCC(F)(F)F)c(-c2ccc(Cl)c(Cl)c2)n1` [Cpd A, 6-(3,4-Dichlorophenyl)-N-[(1R,2R)-2-hydroxycyclohexyl]-5-(2,2,2-trifluoroethoxy)pyridine-2-carboxamide], the Cytotoxicity ([1]; 20 μM) is reported as “significant toxicity”, the Cytotoxicity [1, 3] is reported as “significant toxicity” and the Albuminuria ([2]; 30 mg/Kg once daily) is reported as “significantly reduce; also recorded: reduced”. For the same compound, the Body weight loss ([2]; 30 mg/Kg once daily) was “significantly reduce; also recorded: reduced”, the “TOTAL CHOL (blood)” value ([2]; 30 mg/Kg) was 104.0 ± 31.6 mg/dL and the TRIGLYCERIDES (blood) ([2]; 30 mg/Kg) was 107 ± 23.9 mg/dL.
In the case of `Cc1oc(-c2cccc(C(F)(F)F)c2)nc1Cn1c(C)cc2cc(C(O)(C(F)(F)F)C(F)(F)F)ccc21` [Cpd C, 1,1,1,3,3,3-Hexafluoro-2-{2-methyl-1-[5-methyl-2-(3-trifluoromethyl-phenyl)-oxazol-4-ylmethyl]-1H-indol-5-yl}-propan-2-ol, reference compound], the Cytotoxicity ([1]; 20 μM) is reported as “significant toxicity”, the Cytotoxicity [1, 3] is reported as “significant toxicity” and the “TOTAL CHOL (blood)” value ([2]; 10 mg/Kg) is reported as 119.8 ± 19.9 mg/dL. It also gave a TRIGLYCERIDES (blood) ([2]; 10 mg/Kg) of 110 ± 53.5 mg/dL.
In the case of `O=C(N[C@@H]1CCCC[C@H]1O)c1cnc(OCC(F)(F)F)c(-c2ccc(Cl)c(Cl)c2)c1` [Cpd G, 5-(3,4-dichloro-phenyl)-N-((1R,2R)-2-hydroxy-cyclohexyl)-6-(2,2,2-trifluoro-ethoxy)-nicotinamide], the increased life span (129 Col4a3 KO mice) is reported as ~15%, the “TOTAL CHOL (blood)” value ([2]; 30 mg/Kg) is reported as 112.0 ± 13.6 mg/dL and the TRIGLYCERIDES (blood) ([2]; 30 mg/Kg) is reported as 120 ± 18.8 mg/dL. For the same compound, the Albuminuria ([2]; 100 mg/Kg once daily) was “significantly reduce; also recorded: reduced”, the Body weight loss ([2]; 100 mg/Kg once daily) was “significantly reduce; also recorded: reduced” and the “deposition of lipid droplets in the kidneys (Oil Red O staining)” value ([2]; 100 mg/Kg, 28 days) was “significantly reduced”. For the same compound, the “TOTAL CHOL (blood)” value ([2]; 100 mg/Kg) was 101.1 ± 12.8 mg/dL, the TRIGLYCERIDES (blood) ([2]; 100 mg/Kg) was 121 ± 19.3 mg/dL and the “global glomerular sclerosis (blind pathological study of kidney cortex)” value ([2]; 100 mg/Kg/day, 4 weeks) was “reduction”. The interstitial inflammation ([2]; 100 mg/Kg/day, 4 weeks) was “reduction”, the podocyte hyperplasia ([2]; 100 mg/Kg/day, 4 weeks) was “reduction” and the podocyte hypertrophy ([2]; 100 mg/Kg/day, 4 weeks) was “reduction”. For the same compound, the segmental glomerular sclerosis ([2]; 100 mg/Kg/day, 4 weeks) was “reduction”, the tubular microcysts ([2]; 100 mg/Kg/day, 4 weeks) was “reduction” and the “esterified cholesterol content in kidney cortex” value ([2]; 28 days, normalized to total protein) was “reduces accumulation of esterified cholesterol; also recorded: significantly reduced”. The physical appearance ([2]; optimal dose (100 mg/Kg), 3rd and 4th week of treatment) was “better physical appearance”.
